6 molecules from publication PMC2873968, “Novel protein kinase D inhibitors cause potent arrest in prostate cancer cell growth and motility” (BMC Chemical Biology, 2010) can be followed below.

One data set is described as follows: MTT cytotoxicity assay. The following applies: human. As for the experimental part:
PC3 cells were seeded into 96-well plates (3000 cells/well) and allowed to attach overnight. Cells were then incubated in media containing 0.3-100 μM inhibitors for 72 h. 3-(4,5-Dimethylthiazol-2-yl)-2,5-diphenyltetrazolium bromide methyl thiazolyl tetrazolium (MTT) solution was prepared at 2 mg/ml concentration in PBS, sterilized by filtering through a 0.2 μm filter, and wrapped in foil to protect from light. 50 μl MTT solution was added to each well and incubated for 4 h at 37°C. Then, media was removed and 200 μl DMSO was added to each well. The plate was mixed for 5 min and the optical density was determined at 570 nm.
PC3 cells were seeded into 96-well plates (3000 cells/well) and were then incubated in media containing 0.3-100 μM inhibitors for 72 h. MTT solution was added to each well and incubated for 4 h. Optical density was read at 570 nm to determine cell viability. The EC50 was determined as the mean ± S.E.M. of three independent experiments for each compound.
On the technique in general: Tetrazolium dyes change colour on reduction, which living cells bring about.

The next data set relates to DU145 cells. Kind of data set: Matrigel invasion assay. It is filed as cell-based. The following applies: 10 μM, 22 h. As for the experimental part: DU145 cells (8.0 × 10^4 cells/ml) in RPMI containing 0.1% fetal bovine serum (FBS) were seeded into the top chamber of BioCoat control inserts (pore size 8 μm) or BioCoat Matrigel invasion inserts with Matrigel-coated filters (BD Pharmingen). To stimulate invasion, media in the lower chamber of the insert contained 20% FBS. […] After incubation, noninvasive cells were removed using a cotton swab, and invasive cells were fixed in 100% methanol and stained with 1% crystal violet. After staining, cells were counted under a microscope (200× magnification). The percentage invasion was determined by cell counts in 5 fields of the number of cells that invaded the Matrigel matrix relative to the number of cells that migrated through the control insert.
After 22 hours, noninvasive cells were removed and invasive cells were fixed in 100% methanol, stained in […] crystal violet solution, and photographed. The number of cells that invaded the Matrigel matrix was determined by cell counts in 5 fields relative to the number of cells that migrated through the control insert. The data shown is the mean ± S.E.M. of two independent experiments. Statistical significance versus the control DMSO was determined by unpaired t-test. ***, p < 0.001.

The target of another data set is T1, PKD1 (Homo sapiens, UniProt Q15139).
T1 sequence (Q15139 1-912): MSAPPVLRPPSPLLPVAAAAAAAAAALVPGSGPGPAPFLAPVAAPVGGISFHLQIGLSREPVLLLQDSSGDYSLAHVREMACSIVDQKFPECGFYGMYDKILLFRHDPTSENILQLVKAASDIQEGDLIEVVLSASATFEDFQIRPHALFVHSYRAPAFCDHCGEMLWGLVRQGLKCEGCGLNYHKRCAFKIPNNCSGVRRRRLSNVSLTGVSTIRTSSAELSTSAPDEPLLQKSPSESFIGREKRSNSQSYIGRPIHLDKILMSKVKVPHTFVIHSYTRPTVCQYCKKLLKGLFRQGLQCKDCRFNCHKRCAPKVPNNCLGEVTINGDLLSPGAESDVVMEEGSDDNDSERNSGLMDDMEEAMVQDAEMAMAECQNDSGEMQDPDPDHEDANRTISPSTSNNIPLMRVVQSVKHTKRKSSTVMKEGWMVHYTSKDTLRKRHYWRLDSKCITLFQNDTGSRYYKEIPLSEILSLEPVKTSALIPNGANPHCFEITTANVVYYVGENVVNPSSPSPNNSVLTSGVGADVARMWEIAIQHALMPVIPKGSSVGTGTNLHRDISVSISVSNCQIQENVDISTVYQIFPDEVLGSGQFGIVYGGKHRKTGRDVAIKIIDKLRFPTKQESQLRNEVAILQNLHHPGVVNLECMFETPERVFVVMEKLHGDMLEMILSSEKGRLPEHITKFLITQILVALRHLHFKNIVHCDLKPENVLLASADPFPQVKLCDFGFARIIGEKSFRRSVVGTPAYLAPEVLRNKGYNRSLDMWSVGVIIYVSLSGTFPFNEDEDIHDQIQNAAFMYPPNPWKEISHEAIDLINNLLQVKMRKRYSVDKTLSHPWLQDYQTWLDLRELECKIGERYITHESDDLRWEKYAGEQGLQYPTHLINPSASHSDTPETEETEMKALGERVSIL
The data set is described as follows: In vitro radiometric PKD kinase assay. It is filed as biochemical. Further details: purchased Biomol International. Particulars: for IC50: radiometric kinase assay, mean ± S.E.M.; for fold greater selectivity toward PKD1: versus PKD2 and PKD3. As for the experimental part:
In vitro radiometric kinase assays were conducted as previously described. Briefly, 1 μCi [γ-^32P] ATP (PerkinElmer Life Sciences), 70 μM ATP, 50 ng purified recombinant human PKD1 (Biomol International, Plymouth Meeting, PA), PKD2 (SignalChem, Richmond, BC, Canada), or CAMKIIα (Enzo Life Sciences) or 75 ng PKD3 (Enzo Life Sciences), and 2.5 μg syntide-2 (Sigma) in 50 μl kinase buffer containing 50 mM Tris-HCl, pH 7.5, 4 mM MgCl2, and 10 mM β-mercaptoethanol. For the CAMK assay, 0.5 mM CaCl2 and 30 ng/μl calmodulin were pre-incubated for 10 min on ice, and then added to each reaction mixture. The reaction was incubated at 30°C for 10 min, and 25 μl of the reaction mixture was then spotted onto Whatman P81 filter paper (Whatman Inc., Clifton, NJ). The filter papers were washed 3 times in 0.5% phosphoric acid, air-dried, and counted using a Beckman LS6500 multipurpose scintillation counter (Beckman).
The in vitro inhibitory activities of the novel compounds toward PKD were determined using radiometric PKD kinase activity assays. Recombinant human PKD1, -2, or -3 was incubated with the substrate, syntide-2, in the presence of 10 different concentrations of each compound. IC50 values were determined for each compound by plotting percent PKD activity versus compound concentration for each point.
A-E, inhibition of recombinant human PKD1 in vitro. […] A 10-point concentration curve was generated for each compound for IC50 determination. Each IC50 was determined as the mean ± S.E.M. of three independent experiments with triplicate determinations at each concentration in each experiment. Representative graphs are shown.

For `O=C1NCCCc2c1oc1ccc(O)cc21` [CID755673, 7-Hydroxy-2,3,4,5-tetrahydro-[1]benzoxolo[2,3-c]azepin-1-one], the EC50 at 72 h in the data set “MTT cytotoxicity assay” (PC3 cells) turned out to be 320 µM. The “inhibition of invasion (in words)” value in the data set with DU145 cells is given as “significantly inhibited invasion”. The molecule also returned an IC50 on PKD1 of 0.182 ± 0.027 µM.
In “MTT cytotoxicity assay” (PC3 cells), `O=C1NCCSc2c1sc1ccc(O)cc21` [kb-NB142-70] gave an EC50 at 72 h of 8.03 µM. The percent invasion in the data set with DU145 cells is on record as 10%. Also, on PKD1, the “fold greater inhibition of PKD1 than the parental compound CID755673” value was 7 fold, half-maximal inhibition (IC50) required 0.0283 ± 0.0023 µM and the “fold greater selectivity toward PKD1” value is “about 2 fold”.
Consider `COc1ccc2sc3c(c2c1)SCCNC3=O` [kb-NB165-09], for which the EC50 at 72 h in the data set “MTT cytotoxicity assay” (PC3 cells) was determined as 50 µM. In the data set on DU145 cells, this molecule returned a percent invasion of 10%. The molecule also yielded an IC50 at PKD1 of 0.0825 ± 0.0046 µM.
`O=C1NCCSc2c1sc1ccc(O)c(I)c21` [kb-NB165-31] returned an EC50 at 72 h in “MTT cytotoxicity assay” of 31.9 µM. Besides, the “inhibition of invasion (in words)” value in the data set with DU145 cells is “levels similar to the parental compound”. Besides, half-maximal inhibition on PKD1 (IC50) required 0.114 ± 0.0239 µM.
Molecule `O=C1NCCCSc2c1sc1ccc(O)cc21` [kb-NB165-92] gave an EC50 at 72 h in “MTT cytotoxicity assay” of 78.3 µM. Besides, in the data set on DU145 cells, the “inhibition of invasion (in words)” value is reported as “levels similar to the parental compound”. At PKD1, the IC50 is 0.111 ± 0.006 µM. The “fold reduction of potency for PKD1” value on PKD1 (versus kb-NB142-70) is 2-4 fold.
Consider `COc1ccc2sc3c(c2c1)SCCCNC3=O` [kb-NB184-02], for which the EC50 at 72 h in “MTT cytotoxicity assay” was determined as 33.8 µM. The “inhibition of invasion (in words)” value in the data set on DU145 cells is “levels similar to the parental compound”. Besides, at PKD1, the IC50 is 0.193 ± 0.0274 µM and the “fold greater selectivity toward PKD1” value is “about 2 fold”.

As usually defined, the EC50 is the midpoint of the concentration-response curve. Low values mean an effect from little substance, high ones a need for much substance. As a reminder, the IC50 is the midpoint of a concentration-inhibition curve. A low value points to greater potency.
